From patent US5856535A, “Aminosterol ester compounds” (priority 1996, dated 1999)
In brackets after ≈: the same amount, converted by molar mass.

Tests used:
melanoma cells = experiment: MTT assay for cell number; type: cell-based; details: for IC50 / MTT assay IC50: Tables III-V; for IC50: read-out: MTT assay IC50; for minimal effective concentration: 48 h, Table II, read-out: Minimum Effective Concentration, MTT assay
Description: In Table V, several aminosterol esters show efficacy in killing melanoma cells in the MTT assay.
The MTT assay for cell number is performed as follows. Cells are counted on a hemocytometer and diluted to a concentration of approx. 10,000 cells/well (55,000 cells/ml×0.18 ml). Cells are then plated in a 96 well microtiter plate and allowed to attach overnight. The next day, compounds are serially diluted from 1000 to 15.6 μg/ml and run in duplicate. 20 μl of each dilution are transferred to the pre-seeded microtiter plates. The final concentrations are 100 to 1.56 μg/ml. The plates are then incubated for 48 hours at 37° C. in 5% CO2. After 48 hours, MTT solution is added. The plate is re-incubated for 4 hours. Readings are done by removing all but 30 μl of media and MTT solution and dissolving the formazan crystals with DMSO. The formazan is dissolved by mixing on a rotating plate at low speed for about 30 minutes. Absorbance of converted dye is measured at a wavelength of 560 nm with background subtraction at 630 nm. The percent survival is determined by a comparison between the mean absorbance of the duplicate test lanes and the growth control.

[1] = inhibition of MSI-1436 binding; details: 3H-MSI-1436 at 20 μg/mL
S. aureus = experiment: antibiotic activity, S. aureus; type: cell-based; details: Staphylococcus aureus
[2] = test system: chick embryo vitelline capillaries; experiment: chick embryo vitelline capillary regression assay; type: in vivo; design: key to Chick embryo vitelline capillary regression: +: Vascular reactivity; 0: No vascular reactivity; +/-: Equivocal reactivity; details: 1 μg applied, 60 minutes
Description: Using the chick embryo vitelline capillaries assay, various aminosterol compounds were tested for their ability to induce capillary regression. Each compound was applied in 0.1 ml of 15% Ficol 400 and PBS onto the embryo, and vascular regression was assessed after 60 minutes. These tests were conducted by the chorioallantoic membrane anti-angiogenesis assay by applying the material to be assayed to 3 day old fertilized chick embryos in the manner described by Wilks et al., "Inhibition of Angiogenesis With Combination Angiostatic Steroids and Suramin," Radiation Biology, Vol. 60, Nos. 1/2, 1991, pp. 73-77, which article is entirely incorporated herein by reference.
The 3-day chick embryo consists of an embryonic disc from which numerous vessels emerge and return, forming a "figure 8"-shaped structure--the embryo in the center with vascular loops extending outward over both poles. […] Following a lag period of around 15 minutes, the constriction of continuity between capillary and secondary vessels, generally on the "venous" side, was observed. Continued pulsatile blood flow progressed, resulting in a "swelling" of the blind tube, followed by a pinching off of the remaining connection and formation of an enclosed vascular sac resembling a "blood island." This process progressed until only the largest vessels remained intact.

P. aerug = experiment: antibiotic activity, P. aerug; type: cell-based
splenocytes = experiment: mitogen proliferation assay (splenocytes of treated mice, Con A); type: in vivo; details: 10 mg/kg iv
Description: For the attached Tables, the mitogen proliferation assay was performed by treating mice (male or female) with various amounts of the aminosterol test compounds. Some time later (typically between 2 hours and 14 days), the mice are sacrificed and their spleens removed. Splenocytes are harvested and cultured in the presence of between 1-10 μg/ml of Con A (Sigma) for 48 hours. See James Morgan, "Monoclonal Antibody Production," Modern Methods in Pharmacology, pp. 29-67, eds., Spector and Back, 1988. This excerpt is entirely incorporated herein by reference. Cell proliferation is monitored either by direct cell counting or by measurement of the incorporation of radioactive thymidine.

[3] = test system: Xenopus laevis Stages 59-60 tadpoles; experiment: tadpole assay; type: in vivo; details: 10 μg/ml where stated

Row | Compound | IC50 (melanoma cells) | % Inhib. of MSI-1436 Binding @ 100 μg/mL [1] | further results
1 | COC(=O)CCC(C)[C@H]1CCC2C3CC[C@H]4C[C@H](NCCCNCCCCNCCCN)CC[C@]4(C)C3CC[C@@]21C (stereo partly drawn) [drawing 118] | 13 µg/mL (≈ 22.6 µM) | 49% | –
2 | COC(=O)CCC(C)[C@H]1CCC2C3C(CC[C@@]21C)[C@@]1(C)CC[C@H](NCCCNCCCCNCCCN)C[C@@H]1C[C@H]3O (stereo partly drawn) [drawing 115] | 8.1 µg/mL (≈ 13.7 µM) | 32% | –
3 | COC(=O)CCC(C)[C@H]1CCC2C3C(CC[C@@]21C)[C@@]1(C)CC[C@H](NCCCNCCCCNCCCN)C[C@@H]1C[C@H]3O (stereo partly drawn) [drawing 35] | – | – | MIC (S. aureus): 2 to 4 µg/mL (≈ 3.38 to 6.77 µM)
4 | COC(=O)CCC(C)[C@H]1CCC2C3CC[C@@H]4C[C@H](NCCN)CC[C@]4(C)C3C[C@H](O)[C@@]21C (stereo partly drawn) [drawing 90] | – | – | minimal effective concentration (melanoma cells): 2.4 µg/mL
5 | COC(=O)CCC(C)[C@H]1CCC2C3CC[C@H]4C[C@@H](NCCCNCCCCNCCCN)CC[C@]4(C)C3CC[C@@]21C (stereo partly drawn) [drawing 75] | – | – | minimal effective concentration (melanoma cells): 5 µg/mL
6 | CC(C)CCC[C@@H](C)[C@H]1CC[C@H]2[C@@H]3CC[C@H]4C[C@@H](NCCCNCCCCN)CC[C@]4(C)[C@H]3CC[C@]12C [Compound 303] | – | – | Chick embryo vitelline capillary regression [2]: 0
7 | COC(=O)CCC(C)[C@H]1CCC2C3C(CC[C@@]21C)[C@@]1(C)CC[C@@H](NCCN)C[C@H]1C[C@H]3O (stereo partly drawn) [drawing 40] | – | – | MIC (P. aerug): 32 µg/mL (≈ 71.3 µM)
8 | COC(=O)CCC(C)[C@H]1CCC2C3C[C@@H](O)[C@H]4C[C@@H](NCCCNCCCCNCCCN)CC[C@]4(C)C3CC[C@@]21C (stereo partly drawn) | 10 µg/mL (≈ 16.9 µM) | 51% | MTT assay IC50 (melanoma cells): 14 µg/mL; Rel. potency to MSI-1436, Mitogen Proliferation Assay (splenocytes): 0.43
9 | COC(=O)CCC(C)[C@H]1CCC2C3CC[C@H]4C[C@H](NCCCNCCCCNCCCN)CC[C@]4(C)C3CC[C@@]21C (stereo partly drawn) [drawing 55] | – | – | MIC (S. aureus): 4 µg/mL (≈ 6.96 µM)
10 | COC(=O)CC[C@@H](C)[C@H]1CC[C@H]2[C@@H]3[C@H](O)C[C@@H]4C[C@@H](NCCN)CC[C@]4(C)[C@H]3CC[C@]12C [Compound 409] | – | – | effect on embryonic epithelium / epithelial shedding (in words) [3]: functionally similar to compound 1437
11 | COC(=O)CCC(C)[C@H]1CCC2C3CC[C@H]4C[C@@H](NCCCNCCCCNCCCN)CC[C@]4(C)C3CC[C@@]21C (stereo partly drawn) [drawing 103] | 5 µg/mL (≈ 8.7 µM) | -24% | MTT assay IC50 (melanoma cells): 4 µg/mL; Rel. potency to MSI-1436, Mitogen Proliferation Assay (splenocytes): 0.73
12 | COC(=O)CCC(C)[C@H]1CCC2C3CC[C@@H]4C[C@H](NCCN)CC[C@]4(C)C3C[C@H](O)[C@@]21C (stereo partly drawn) [drawing 109] | 2.4 µg/mL (≈ 5.35 µM) | – | –
13 | COC(=O)CCC(C)[C@H]1CCC2C3C(CC[C@@]21C)[C@@]1(C)CC[C@@H](NCCCNCCCCN)C[C@H]1C[C@H]3O (stereo partly drawn) [drawing 116] | 12 µg/mL (≈ 22.5 µM) | 18% | –
14 | COC(=O)CC[C@@H](C)[C@H]1CC[C@H]2[C@@H]3C[C@@H](O)[C@H]4C[C@H](NCCN)CC[C@]4(C)[C@H]3CC[C@]12C [Compound 431] | – | – | effect on embryonic epithelium / epithelial shedding (in words) [3]: functionally similar to compound 1437
15 | COC(=O)CCC(C)[C@H]1CCC2C3C[C@@H](O)[C@H]4C[C@@H](NCCN)CC[C@]4(C)C3CC[C@@]21C (stereo partly drawn) | 0.8 µg/mL (≈ 1.78 µM) | – | –
16 | COC(=O)CCC(C)[C@H]1CCC2C3C[C@@H](O)[C@H]4C[C@H](NCCN)CC[C@]4(C)C3CC[C@@]21C (stereo partly drawn) | 2.9 µg/mL (≈ 6.46 µM) | – | –
17 | COC(=O)CCC(C)[C@H]1CCC2C3C(CC[C@@]21C)[C@@]1(C)CC[C@H](NCCCNCCCCNCCCN)C[C@H]1C[C@H]3O (stereo partly drawn) | 7.9 µg/mL (≈ 13.4 µM) | 19% | –
